The values below come from ChEMBL document CHEMBL1201862, “PubChem BioAssay data set” (2004).

Molecules are shown by their SMILES. Calls of active or inactive are those of the source. Some results are limits rather than exact numbers.

Test [1] relates to Streptococcus. Nature of the test: Luminescence Microorganism-Based Dose Response Follow up to Identify Compounds Cytotoxic to Streptococcus. [Related pubchem assays: 1677 (Project Summary), 1915, 1914, 1902 (Retest at Dose), 1900 (Counter Screen), 1662 (Primary HTS)]. The class given is functional, organism-based. (In general: Counterscreens check selectivity or assay interference.)

Test [2] has as its target T1, Fatty acid synthase (Homo sapiens, UniProt P49327). Nature of the test: FAS thioesterase domain inhibitors, dose response, biochemical, kinetic fluorescence intensity (AID 624326).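 Further: rate of fluorescence rise from hydrolysis of a fluorogenic O-methyl fluorescein ester substrate.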 The class given is functional.
Test [3] can be described thus: HepG2 cell cytotoxicity, dose response, cytotoxicity control for Shn3 inhibitor project, CellTiter-Glo, cherry-picked (AID 624134). The class given is functional, cell-based. A general note: Cellular ATP, detected with luciferase, serves as a proxy for viable cell number.
Test [4] addresses Heat shock protein HSP 90-alpha (Homo sapiens, UniProt P07900). The class given is functional, organism-based.
The nature of test [5]: Fluorescence-based cell-based high throughput dose response assay for inhibitors of the interaction of nucleotide-binding oligomerization domain containing 2 (NOD2) and the receptor-interacting serine-threonine kinase 2 (RIPK2). The following applies: Homo sapiens. The class given is functional.
In test [6] the target is T2, Streptokinase A (Streptococcus pyogenes serotype M1, UniProt P10520).
T2 sequence (P10520 whole entry): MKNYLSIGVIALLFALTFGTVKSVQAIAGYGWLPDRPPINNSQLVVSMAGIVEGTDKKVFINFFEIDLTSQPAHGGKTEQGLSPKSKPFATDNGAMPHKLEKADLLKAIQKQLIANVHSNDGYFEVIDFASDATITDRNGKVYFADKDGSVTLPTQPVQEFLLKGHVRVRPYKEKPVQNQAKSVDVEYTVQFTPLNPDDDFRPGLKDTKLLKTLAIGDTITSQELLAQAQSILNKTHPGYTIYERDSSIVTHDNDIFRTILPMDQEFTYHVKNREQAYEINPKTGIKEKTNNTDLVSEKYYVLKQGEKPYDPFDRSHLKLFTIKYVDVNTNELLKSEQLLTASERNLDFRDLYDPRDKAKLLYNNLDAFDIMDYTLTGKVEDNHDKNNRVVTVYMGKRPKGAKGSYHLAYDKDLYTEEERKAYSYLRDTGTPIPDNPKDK
Briefly: S. pyogenes streptokinase expression inhibitors, potency, dose response, plasminogen activation absorbance, OD405 (AID 1914).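 Further: secreted streptokinase activity via plasminogen activation per viability signal from cell pellet.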 The class given is functional, Streptococcus pyogenes M1 GAS.

The nature of test [7]: Shn3 3'UTR reporter inhibitors, dose response, cell-based, Clone20 osteoblasts, firefly luciferase, cherry-picked (AID 624132).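 Further: firefly luciferase luminescence from reporter carrying the Shn3 3'UTR in osteoblasts.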 The class given is functional.
Test [8] addresses T1, Fatty acid synthase. Nature of the test: FAS thioesterase domain inhibitors, dose response, biochemical, endpoint fluorescence intensity, uHTS hits (AID 624327).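 Further: fluorescence from hydrolysis of an O-methyl fluorescein acyl ester substrate by the enzyme.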 The class given is functional.
In test [9] the test system is Streptococcus sp. 'group A'. Nature of the test: growth inhibition of control SK(-) GAS strain, dose response, counter-screen for streptokinase expression inhibitor project, luminescence, kanamycin, BacTiterGlo, confirmation (AID 1900). The class given is functional, organism-based.
Test [10] deals with Beta Lactamase (Pseudomonas aeruginosa, UniProt Q932Y6). Briefly: beta-lactamase reporter inhibitor potency, dose response, artefact control for NOD2-RIPK2 interaction inhibitor project, BLA reporter cells, FRET fluorescence (AID 651552). The class given is functional, cell-based.
Test [11] in a line: control 3'UTR Renilla luciferase suppression, dose response, counter-screen for Shn3 inhibitor project, cell-based, Clone20-Shn3RL, cherry-picked (AID 624133). The class given is functional.
The subject of test [12] is Streptococcus. Nature of the test: Group A Streptococcus viability loss, dose response, counter-screen for streptokinase expression inhibitor project, luminescence, BacTiterGlo (AID 1915).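 Further: potency for reduction of bacterial viability or growth.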 The class given is functional, organism-based.
The subject of test [13] is HEK293. Nature of the test: Fluorescence-based counterscreen for potentiators or agonists of NPY-Y2: cell-based high-throughput dose response assay to identify inhibitors of cyclic nucleotide gated ion channel (CNGC) activity. In this assay, the parental HEK293 cell line transfected with a cyclic-nucleotide gated ion channel (CNGC)-based cAMP sensor is used to measure inhibition of isoproterenol-induced CNGC activity by test compound. The class given is functional. The following applies: Homo sapiens.

Test [14] deals with Neuropeptide Y receptor type 1 (Homo sapiens, UniProt P25929). Nature of the test: Fluorescence-based counterscreen for agonists of NPY-Y2: cell-based high-throughput dose response assay for agonists of NPY-Y1. The class given is functional.
In test [15] the target is Neuropeptide Y receptor type 2 (Homo sapiens, UniProt P49146). Briefly: Fluorescence-based cell-based high-throughput dose response assay for agonists of NPY-Y2. [Related pubchem assays: 1703 (Screening assay (CNGC inhibitors).), 1359 (Screening assay (NPY-Y2 potentiators or agonists).), 1304 (Screening assay (NPY-Y1 potentiators or agonists).), 1710 (Screening assay (NPY-Y2 agonists).), 1791 (Summary AID.)]. The class given is functional.

Test [16] deals with T3, Aminopeptidase N (Plasmodium falciparum FcB1/Columbia, UniProt O96935).
T3 sequence (O96935 whole entry): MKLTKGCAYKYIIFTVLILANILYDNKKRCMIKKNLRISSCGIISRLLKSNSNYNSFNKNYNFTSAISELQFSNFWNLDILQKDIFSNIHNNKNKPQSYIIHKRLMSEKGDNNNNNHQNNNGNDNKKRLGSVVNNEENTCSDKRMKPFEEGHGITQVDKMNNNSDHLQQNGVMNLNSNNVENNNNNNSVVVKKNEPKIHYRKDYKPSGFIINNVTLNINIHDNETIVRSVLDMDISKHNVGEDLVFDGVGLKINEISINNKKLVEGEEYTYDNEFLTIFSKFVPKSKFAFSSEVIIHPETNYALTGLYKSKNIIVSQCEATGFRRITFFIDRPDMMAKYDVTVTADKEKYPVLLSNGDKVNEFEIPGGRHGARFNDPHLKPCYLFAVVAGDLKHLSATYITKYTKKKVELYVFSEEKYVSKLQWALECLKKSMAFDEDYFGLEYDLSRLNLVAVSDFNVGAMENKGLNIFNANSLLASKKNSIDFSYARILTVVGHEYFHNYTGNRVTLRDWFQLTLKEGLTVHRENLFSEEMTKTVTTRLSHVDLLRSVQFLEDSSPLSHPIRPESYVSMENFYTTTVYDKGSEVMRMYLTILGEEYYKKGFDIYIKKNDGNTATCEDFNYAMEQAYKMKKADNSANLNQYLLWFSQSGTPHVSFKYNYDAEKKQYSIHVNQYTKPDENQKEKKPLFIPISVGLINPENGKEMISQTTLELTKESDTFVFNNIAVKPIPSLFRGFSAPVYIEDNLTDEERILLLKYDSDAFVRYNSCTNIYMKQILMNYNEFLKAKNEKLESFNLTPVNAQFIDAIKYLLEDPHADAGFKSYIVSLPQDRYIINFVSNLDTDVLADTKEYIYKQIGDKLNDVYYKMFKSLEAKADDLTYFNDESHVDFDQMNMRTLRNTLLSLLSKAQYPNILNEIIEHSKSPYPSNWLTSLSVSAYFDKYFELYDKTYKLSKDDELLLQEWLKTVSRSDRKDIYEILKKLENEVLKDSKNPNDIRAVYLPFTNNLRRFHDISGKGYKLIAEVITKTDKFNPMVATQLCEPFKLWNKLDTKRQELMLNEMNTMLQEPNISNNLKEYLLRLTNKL
Briefly: P. falciparum M1AAP inhibitors, biochemical, fluorogenic H-Leu-NHMec substrate, 1536-well (AID 1445). Set-up: species or system Plasmodium falciparum 3D7, 3D7.

Test [17] in a line: ZM109 Env clade C HIV-1 fusion inhibitors, dose response, HeLa effector, CEM target cells, luciferase, cherry-pick (AID 652058). The class given is functional, cell-based.
A short description of test [18]: inhibitors of clade B AD8 Env fusion, dose response, cell-based, cherry-pick (AID 652062).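 Further: luciferase signal from cell-cell fusion driven by HIV-1 clade B AD8 Env; potency is for inhibitors of fusion seen as a drop in luminescence.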 The class given is functional.
Test [19] in a line: inhibitors of HIV Env-driven cell fusion, dose response, cherry-pick (AID 652057). The class given is functional, cell-based.
The nature of test [20]: inhibitors of firefly luciferase expression or activity, dose response, H4 neuroglioma cells, luminescence (AID 1990). The class given is functional, cell-based.
The target in test [21] is Wee1-like protein kinase (Homo sapiens, UniProt P30291). Briefly: Dose Response Cell-based Assay for Inhibitors of Wee1 Degradation. [Related pubchem assays: 1410, 1321 ]. The class given is functional.
Test [22] can be described thus: off-target signal loss in HeLa-CEM21 co-culture – HeLa F-luc CTL cells, cherry-picked, counter-screen for HIV-1 Env fusion inhibitor project, dose response (AID 652040).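 Further: potency for signal decrease marking cytotoxic or nonspecific inhibition.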 The class given is functional, cell-based.
A short description of test [23]: Luminescence Cell-Based Dose Response HTS to Identify Inhibitors of 5'UTR Stem-Loop Driven Prion Protein mRNA Translation in H4 Neuroglioblastoma Cells. [Related pubchem assays: 1827 (Project Summary), 1813 (Primary HTS)]. The class given is functional.
Test [24] addresses G2/mitotic-specific cyclin-B1 (Homo sapiens, UniProt P14635). Nature of the test: Counterscreen assay for inhibitors of Wee1 degradation: dose response cell-based assay to identify inhibitors of cyclin B degradation. [Related pubchem assays: 1410, 1321 ]. The class given is functional.
A short description of test [25]: inhibitors of SNCA 5'UTR-driven reporter translation, confirmation, H4 neuroglioma cells, luminescence (AID 1988). The class given is functional, cell-based.

T1 sequence (P49327 whole entry, the tested form may be a part): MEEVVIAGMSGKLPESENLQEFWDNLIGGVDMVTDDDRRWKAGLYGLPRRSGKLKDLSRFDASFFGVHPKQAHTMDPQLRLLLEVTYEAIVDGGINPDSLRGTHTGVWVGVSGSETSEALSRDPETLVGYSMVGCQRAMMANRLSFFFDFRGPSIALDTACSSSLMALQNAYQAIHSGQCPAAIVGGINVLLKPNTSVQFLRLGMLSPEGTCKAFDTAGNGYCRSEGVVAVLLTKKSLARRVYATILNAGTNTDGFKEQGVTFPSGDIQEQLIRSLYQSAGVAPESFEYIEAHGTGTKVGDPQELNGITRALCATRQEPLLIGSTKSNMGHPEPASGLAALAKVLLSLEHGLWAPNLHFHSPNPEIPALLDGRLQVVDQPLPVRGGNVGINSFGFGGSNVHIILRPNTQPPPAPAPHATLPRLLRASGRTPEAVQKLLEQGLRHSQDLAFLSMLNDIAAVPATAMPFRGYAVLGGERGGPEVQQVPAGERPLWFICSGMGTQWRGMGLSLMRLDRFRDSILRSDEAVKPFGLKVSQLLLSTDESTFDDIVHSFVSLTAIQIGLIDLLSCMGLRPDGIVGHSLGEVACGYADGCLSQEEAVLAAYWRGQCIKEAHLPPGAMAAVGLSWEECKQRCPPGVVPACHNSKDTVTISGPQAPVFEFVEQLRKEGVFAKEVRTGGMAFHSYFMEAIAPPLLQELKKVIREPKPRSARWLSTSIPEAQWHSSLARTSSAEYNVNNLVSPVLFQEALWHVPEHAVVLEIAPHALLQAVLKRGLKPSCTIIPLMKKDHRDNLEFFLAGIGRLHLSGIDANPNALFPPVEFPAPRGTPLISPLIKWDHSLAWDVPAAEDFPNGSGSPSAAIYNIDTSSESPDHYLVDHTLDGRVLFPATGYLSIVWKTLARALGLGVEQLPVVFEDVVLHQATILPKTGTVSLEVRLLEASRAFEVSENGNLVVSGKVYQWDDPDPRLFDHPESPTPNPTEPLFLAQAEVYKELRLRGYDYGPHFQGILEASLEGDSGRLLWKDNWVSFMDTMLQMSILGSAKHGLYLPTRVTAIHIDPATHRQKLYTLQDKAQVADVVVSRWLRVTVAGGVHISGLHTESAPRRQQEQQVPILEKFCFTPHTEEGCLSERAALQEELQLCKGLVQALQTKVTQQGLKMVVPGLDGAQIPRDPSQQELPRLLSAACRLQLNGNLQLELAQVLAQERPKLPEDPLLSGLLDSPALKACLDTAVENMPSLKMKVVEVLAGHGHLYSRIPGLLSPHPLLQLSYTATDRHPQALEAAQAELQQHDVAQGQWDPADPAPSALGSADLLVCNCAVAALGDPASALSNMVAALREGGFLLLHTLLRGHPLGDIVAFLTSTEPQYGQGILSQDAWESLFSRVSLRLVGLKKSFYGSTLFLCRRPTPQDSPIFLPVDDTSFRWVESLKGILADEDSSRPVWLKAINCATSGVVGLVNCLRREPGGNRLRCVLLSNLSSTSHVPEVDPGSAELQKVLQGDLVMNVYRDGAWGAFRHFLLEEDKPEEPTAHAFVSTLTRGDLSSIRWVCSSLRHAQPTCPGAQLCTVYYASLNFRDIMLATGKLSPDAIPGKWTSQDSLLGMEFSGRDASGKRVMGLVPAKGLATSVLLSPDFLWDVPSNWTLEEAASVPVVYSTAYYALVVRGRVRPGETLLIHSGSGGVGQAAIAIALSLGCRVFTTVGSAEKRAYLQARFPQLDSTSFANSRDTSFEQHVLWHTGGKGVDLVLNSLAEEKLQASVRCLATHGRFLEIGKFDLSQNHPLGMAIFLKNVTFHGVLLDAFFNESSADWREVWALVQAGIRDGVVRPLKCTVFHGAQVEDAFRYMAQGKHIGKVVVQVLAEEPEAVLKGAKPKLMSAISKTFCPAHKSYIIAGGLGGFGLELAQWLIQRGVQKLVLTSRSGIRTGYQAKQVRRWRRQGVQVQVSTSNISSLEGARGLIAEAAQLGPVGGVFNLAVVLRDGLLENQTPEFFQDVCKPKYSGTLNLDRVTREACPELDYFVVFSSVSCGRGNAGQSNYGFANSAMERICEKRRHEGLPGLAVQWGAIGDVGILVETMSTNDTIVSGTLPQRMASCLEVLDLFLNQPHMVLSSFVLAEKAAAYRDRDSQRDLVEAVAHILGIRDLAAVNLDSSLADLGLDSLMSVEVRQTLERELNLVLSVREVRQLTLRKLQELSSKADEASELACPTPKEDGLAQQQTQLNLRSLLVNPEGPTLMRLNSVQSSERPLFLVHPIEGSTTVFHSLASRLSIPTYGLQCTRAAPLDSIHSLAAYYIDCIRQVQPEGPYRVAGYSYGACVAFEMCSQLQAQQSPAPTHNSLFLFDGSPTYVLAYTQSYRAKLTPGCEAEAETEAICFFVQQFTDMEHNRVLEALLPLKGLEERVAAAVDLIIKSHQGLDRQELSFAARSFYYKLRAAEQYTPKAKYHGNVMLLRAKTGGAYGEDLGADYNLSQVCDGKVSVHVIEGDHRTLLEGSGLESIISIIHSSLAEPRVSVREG
Sequence of Neuropeptide Y receptor type 1 (P25929 whole entry): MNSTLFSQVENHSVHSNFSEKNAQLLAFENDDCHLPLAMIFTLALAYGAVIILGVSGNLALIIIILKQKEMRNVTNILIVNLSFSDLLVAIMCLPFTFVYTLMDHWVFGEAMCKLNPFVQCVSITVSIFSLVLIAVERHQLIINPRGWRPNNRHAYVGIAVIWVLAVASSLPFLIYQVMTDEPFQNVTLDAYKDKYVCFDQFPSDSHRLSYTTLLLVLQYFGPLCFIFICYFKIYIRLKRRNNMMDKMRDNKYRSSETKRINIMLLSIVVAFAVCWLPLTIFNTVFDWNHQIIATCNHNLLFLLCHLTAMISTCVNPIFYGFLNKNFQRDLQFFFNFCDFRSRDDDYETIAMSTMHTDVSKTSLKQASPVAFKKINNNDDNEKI
Sequence of Wee1-like protein kinase (P30291 whole entry, the tested form may be a part): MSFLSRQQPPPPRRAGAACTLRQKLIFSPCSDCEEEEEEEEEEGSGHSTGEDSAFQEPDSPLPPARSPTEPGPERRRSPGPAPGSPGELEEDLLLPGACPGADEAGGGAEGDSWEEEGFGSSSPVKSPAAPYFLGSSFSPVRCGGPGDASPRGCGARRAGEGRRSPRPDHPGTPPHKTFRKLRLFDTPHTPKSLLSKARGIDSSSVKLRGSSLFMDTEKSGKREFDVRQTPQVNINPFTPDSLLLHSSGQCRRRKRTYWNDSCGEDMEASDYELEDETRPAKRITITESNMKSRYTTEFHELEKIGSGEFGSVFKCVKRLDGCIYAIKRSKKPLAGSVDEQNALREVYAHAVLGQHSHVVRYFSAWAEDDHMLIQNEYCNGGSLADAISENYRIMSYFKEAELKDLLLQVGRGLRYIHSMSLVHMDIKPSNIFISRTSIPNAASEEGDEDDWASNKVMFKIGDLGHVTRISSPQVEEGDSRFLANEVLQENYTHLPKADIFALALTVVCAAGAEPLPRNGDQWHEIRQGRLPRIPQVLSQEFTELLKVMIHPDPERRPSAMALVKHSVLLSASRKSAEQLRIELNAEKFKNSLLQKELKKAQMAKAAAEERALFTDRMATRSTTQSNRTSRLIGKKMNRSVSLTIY
Sequence of Beta Lactamase (Q932Y6 whole entry): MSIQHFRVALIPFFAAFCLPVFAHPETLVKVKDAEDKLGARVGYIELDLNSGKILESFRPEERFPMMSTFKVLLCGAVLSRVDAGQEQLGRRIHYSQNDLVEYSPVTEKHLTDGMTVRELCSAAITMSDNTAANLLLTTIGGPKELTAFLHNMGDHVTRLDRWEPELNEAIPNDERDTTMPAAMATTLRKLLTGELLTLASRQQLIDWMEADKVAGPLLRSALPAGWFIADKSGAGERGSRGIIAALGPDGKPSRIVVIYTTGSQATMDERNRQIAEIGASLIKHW
Sequence of G2/mitotic-specific cyclin-B1 (P14635 whole entry): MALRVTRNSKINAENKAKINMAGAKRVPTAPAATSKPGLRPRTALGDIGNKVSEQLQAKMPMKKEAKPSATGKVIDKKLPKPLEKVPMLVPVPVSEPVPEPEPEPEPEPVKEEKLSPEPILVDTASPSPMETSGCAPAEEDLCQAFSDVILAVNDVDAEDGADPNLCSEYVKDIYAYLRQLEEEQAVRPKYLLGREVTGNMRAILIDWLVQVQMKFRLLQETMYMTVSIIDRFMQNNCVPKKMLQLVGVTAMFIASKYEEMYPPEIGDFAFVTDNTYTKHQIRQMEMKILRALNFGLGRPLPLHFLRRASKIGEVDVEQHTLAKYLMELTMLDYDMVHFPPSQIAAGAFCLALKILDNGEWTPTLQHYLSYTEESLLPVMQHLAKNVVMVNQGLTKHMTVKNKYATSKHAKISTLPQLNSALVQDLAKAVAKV
Sequence of Neuropeptide Y receptor type 2 (P49146 whole entry): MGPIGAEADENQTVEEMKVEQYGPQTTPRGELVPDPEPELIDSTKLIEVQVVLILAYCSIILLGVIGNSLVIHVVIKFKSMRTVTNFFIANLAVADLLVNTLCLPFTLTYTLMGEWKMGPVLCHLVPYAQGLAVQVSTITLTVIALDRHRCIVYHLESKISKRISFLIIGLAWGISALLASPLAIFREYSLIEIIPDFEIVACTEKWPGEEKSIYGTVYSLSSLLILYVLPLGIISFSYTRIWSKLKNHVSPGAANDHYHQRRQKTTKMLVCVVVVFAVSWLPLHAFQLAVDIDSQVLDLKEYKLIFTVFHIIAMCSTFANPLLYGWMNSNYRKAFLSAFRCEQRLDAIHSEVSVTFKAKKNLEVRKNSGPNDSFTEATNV

Consider `CC[C@@H](C)[C@H](NC(=O)OC(C)(C)C)c1nnc(S(=O)(=O)Cc2cc(C)ccc2C)o1`, for which the EC50 was 33.5 µM (active) in [1], 3.43 µM (active) in test [6], 16.2 µM (active) in test [9] and > 150 µM (not active) in test [12]. Further, the IC50 in test [2] was 4.12 µM (active); in test [5], 3.12 µM (active); in test [8], 3.33 µM (active); in test [10] it was 15.2 µM (inactive). Also, the AC50 in test [3] is 45.1 µM (active); in test [4] it was 4.36 µM (active); in [7], 5.77 µM (active); in test [11] it was 15.4 µM (active).
Take `COc1ccc(CN2C(=O)/C(=C\Nc3ccccc3C(=O)O)c3ccccc3C2=O)cc1`: the EC50 was > 35.4 µM (not active) in [13], > 11.8 µM (not active) in test [14] and > 35.4 µM (not active) in [15]. The IC50 in test [16] is 24.7 µM (active).
On to `CCOc1cccc(N(C(=O)Cc2cccs2)C(C(=O)NC2CCCCC2)c2cccn2C)c1` (stereo not given), for which the AC50 was 24.5 µM (active) in test [17], 42 µM (active) in test [18], 6.74 µM (active) in test [19] and 55.9 µM (active) in test [22]. Further, the concentration for a half-maximal effect (EC50) was 15.1 µM (active) in test [20]; > 49.7 µM (not active) in test [21]; > 120 µM (not active) in test [23]; > 49.7 µM (not active) in test [24]; 19.1 µM (active) in test [25].

As a reminder, the EC50 is the concentration needed to bring the measured effect to its halfway point. A word on the IC50: it is the concentration that gives 50% inhibition. Usually AC50 stands for the midpoint of the concentration-response curve, whichever way the signal moves.
